# Assay results reported in ChEMBL document CHEMBL5325414, “Novel neuroprotective pyromeconic acid derivatives with concurrent anti-Aβ deposition, anti-inflammatory, and anti-oxidation properties for treatment of Alzheimer's disease” (Eur J Med Chem, 2023).
# Activity calls are given as the source filed them. The calls are words filed in the database; no cut-off is given here.
# Legend:
# [1] = molecular target: T1, Amyloid-beta precursor protein (Homo sapiens, UniProt P05067); assay: Inhibition of amyloid beta (1 to 42) (unknown origin) self aggregation assessed as shorter in amyloid fibrils compound addition at 50 uM after fibrilation for 24 hrs
# [2] = Acute toxicity in mouse assessed as change in dietary activity at 2000 mg/kg, IG administered as single dose measured after 14 days; type: organism-based; conditions: in vivo, po, 336 h, time 14 day
# [3] = Ratio of drug concentration in hippocampus to plasma of Sprague-Dawley rat at 15 mg/kg, IG measured after 0.167 hrs; type: ADME, organism-based; conditions: po
# [4] = MRT(0 to t) in Sprague-Dawley rat at 15 mg/kg, IG; type: ADME, organism-based; conditions: in vivo, po
# [5] = Drug concentration in hippocampus of Sprague-Dawley rat at 15 mg/kg, IG measured after 0.25 hrs; type: ADME, organism-based; conditions: po, read-out: Drug uptake
# [6] = Drug concentration in plasma of Sprague-Dawley rat at 15 mg/kg, IG measured after 0.167 hrs; type: ADME, organism-based; conditions: po
# [7] = molecular target: T1, Amyloid-beta precursor protein; assay: Inhibition of Cu2+ induced amyloid beta (1 to 42) (unknown origin) aggregation assessed as depolymerization at 50 uM for 24 hrs by TEM analysis
# [8] = molecular target: T1, Amyloid-beta precursor protein; assay: Inhibition of Fe3+ induced of amyloid beta (1 to 42) aggregation (unknown origin)
# [9] = Acute toxicity in mouse assessed as histopathological change in brain at 2000 mg/kg, IG administered as single dose measured after 14 days measured by H and E staining analysis; type: organism-based; conditions: in vivo, po, 336 h, time 14 day
# [10] = molecular target: T1, Amyloid-beta precursor protein; assay: Inhibition of amyloid beta (1 to 42) (unknown origin) self aggregation assessed as decrease in number of amyloid beta fibrils at 50 uM for 24 hrs
# [11] = Tmax in Sprague-Dawley rat at 15 mg/kg, IG; type: ADME, organism-based; conditions: in vivo, po
# [12] = system: Mus musculus; assay: Neuroprotective effect in scopolamine induced cognitively impaired mouse assessed as reversal of amyloid beta plaque deposition at 20 mg/kg by immunohistochemistry staining analysis; type: functional, organism-based
# [13] = system: Mus musculus; assay: In vivo antiinflammatory activity in scopolamine induced cognitive impaired ICR mouse assessed as decrease in Iba1 levels in hippocampus by immunoblot analysis; type: functional, organism-based
# [14] = Ratio of drug concentration in hippocampus to plasma of Sprague-Dawley rat at 15 mg/kg, IG measured after 4 hrs; type: ADME, organism-based; conditions: po
# [15] = Ratio of drug concentration in hippocampus to plasma of Sprague-Dawley rat at 15 mg/kg, IG measured after 2 hrs; type: ADME, organism-based; conditions: po
# [16] = system: BV-2; assay: Neuroprotective activity against amyloid beta (1 to 42) induced neurotoxicity in mouse BV-2 cells assessed as survival of cells treated for 24 hrs; type: functional, cell-based; conditions: dose 2.5-10 µM
# [17] = system: BV-2; assay: Effect of amyloid beta (1 to 42) indued apoptosis in mouse BV-2 cells assessed as viable cells at 5 uM measured by propidium iodide staining based flow cytometric analysis (reference value: 61.29%); type: functional; conditions: read-out: Activity
# [18] = system: BV-2; assay: Antioxidant activity in H2O2 treated mouse BV-2 cells assessed as reversal of HO-1 level at 5 to 20 uM by immunofluorescence analysis; type: functional, cell-based; conditions: dose 5-20 µM
# [19] = system: BV-2; assay: Neuroprotective activity against amyloid beta (1 to 42) induced neurotoxicity in mouse BV-2 cells assessed as survival of cells at 2.5 uM treated for 24 hrs relative to control; type: functional
# [20] = Drug concentration in hippocampus of Sprague-Dawley rat at 15 mg/kg, IG measured after 0.083 hrs; type: ADME, organism-based; conditions: po, read-out: Drug uptake
# [21] = Acute toxicity in mouse assessed as change in behaviour at 2000 mg/kg, IG administered as single dose measured after 14 days; type: organism-based; conditions: in vivo, po, 336 h, time 14 day
# [22] = Antioxidant activity by measuring oxygen radical absorbance capacity-fluorescein values; type: functional
# [23] = system: Mus musculus; assay: Antioxidant activity in scopolamine induced cognitive impaired mouse assessed as increase of GSH level in cortex at 20 mg/kg; type: functional, organism-based
# [24] = Drug concentration in hippocampus of Sprague-Dawley rat at 15 mg/kg, IG measured after 2 hrs; type: ADME, organism-based; conditions: po, read-out: Drug uptake
# [25] = Metal chelating activity assessed as compound-K+ complex formation by optical shift at 50 uM in PBS buffer 7.4 by UV-vis spectrometric analysis
# [26] = system: Mus musculus; assay: Anti alzheimer activity in scopolamine induced anxiety in ICR mouse assessed as improved memory function pretreated with scopolamine at 3 mg/kg, ip for 31 days followed by compound addition at 20 mg/kg, po at day 7 to 31 by morris water maze test; type: functional, organism-based; conditions: time 25.0 day
# T1 sequence (P05067 whole entry): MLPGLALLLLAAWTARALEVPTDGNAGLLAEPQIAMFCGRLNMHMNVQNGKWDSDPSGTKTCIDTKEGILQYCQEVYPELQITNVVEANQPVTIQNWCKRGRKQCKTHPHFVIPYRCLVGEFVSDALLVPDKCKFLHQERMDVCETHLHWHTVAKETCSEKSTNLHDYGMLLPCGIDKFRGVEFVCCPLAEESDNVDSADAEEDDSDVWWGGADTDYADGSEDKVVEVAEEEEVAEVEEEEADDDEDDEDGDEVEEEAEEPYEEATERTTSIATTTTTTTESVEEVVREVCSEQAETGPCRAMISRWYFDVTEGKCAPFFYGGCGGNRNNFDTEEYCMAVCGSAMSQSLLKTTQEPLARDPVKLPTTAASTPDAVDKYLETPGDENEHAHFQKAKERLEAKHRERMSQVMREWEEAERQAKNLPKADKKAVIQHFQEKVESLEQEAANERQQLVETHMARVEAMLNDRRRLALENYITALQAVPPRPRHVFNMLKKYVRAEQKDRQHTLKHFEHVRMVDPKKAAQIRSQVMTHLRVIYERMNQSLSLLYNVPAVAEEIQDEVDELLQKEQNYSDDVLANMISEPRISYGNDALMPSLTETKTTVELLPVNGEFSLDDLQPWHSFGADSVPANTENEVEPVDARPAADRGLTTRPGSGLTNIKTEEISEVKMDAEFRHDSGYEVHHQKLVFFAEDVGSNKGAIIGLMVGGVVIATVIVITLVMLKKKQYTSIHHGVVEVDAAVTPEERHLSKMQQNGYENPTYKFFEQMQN
smiles,measurement,setting,value
O=c1ccoc(/C=C/c2ccc(O)c(O)c2)c1O,Activity,[1],Active
same,Activity,[2],Non-Toxic
same,Kp at 0.167 h,[3],0.07
same,MRT last,[4],6.36 h
same,concentration at 0.25 h,[5],2.57 ng/mL
same,concentration at 0.167 h,[6],22.2 ng/mL
same,inhibition,[7],Active
same,IC50,[8],9.68 µM
same,Activity,[9],Non-Toxic
same,inhibition,[10],Active
same,Tmax,[11],0.17 h
same,Activity,[12],Active
same,Activity,[13],Active
same,Kp at 4 h,[14],5.62
same,Kp at 2 h,[15],7.12
same,Activity,[16],Dose-Dependent Effect
same,viability at 5 µM,[17],77.4%
same,Activity,[18],Active
same,Activity,[19],56.3%
same,concentration at 0.083 h,[20],1.14 ng/mL
same,Activity,[21],Non-Toxic
same,Activity index,[22],2.65
same,Activity,[23],Active
same,concentration at 2 h,[24],6.37 ng/mL
same,Activity,[25],inactive
same,Activity,[26],Active
